Test results as given in publication PMC6611404 (Frontiers in Aging Neuroscience, 2019).
Where “and” joins values, the source holds several entries; their conditions need not be identical. Equal values may be shown once. Read-outs that look alike come from different tables or passages of the source.

Key:
[1] = molecular target: T1, AChE from human erythrocytes (Homo sapiens, UniProt P22303); test: biochemical; settings: for inhibition at 1 µM: read-out: (h)AChE % inhibition at 10^−6M
T1 construct: AChE from human erythrocytes; purchased Sigma Aldrich; host or cells: human erythrocytes (natural source)
T1 sequence (P22303 other isoform, or with tags, fused parts or gaps): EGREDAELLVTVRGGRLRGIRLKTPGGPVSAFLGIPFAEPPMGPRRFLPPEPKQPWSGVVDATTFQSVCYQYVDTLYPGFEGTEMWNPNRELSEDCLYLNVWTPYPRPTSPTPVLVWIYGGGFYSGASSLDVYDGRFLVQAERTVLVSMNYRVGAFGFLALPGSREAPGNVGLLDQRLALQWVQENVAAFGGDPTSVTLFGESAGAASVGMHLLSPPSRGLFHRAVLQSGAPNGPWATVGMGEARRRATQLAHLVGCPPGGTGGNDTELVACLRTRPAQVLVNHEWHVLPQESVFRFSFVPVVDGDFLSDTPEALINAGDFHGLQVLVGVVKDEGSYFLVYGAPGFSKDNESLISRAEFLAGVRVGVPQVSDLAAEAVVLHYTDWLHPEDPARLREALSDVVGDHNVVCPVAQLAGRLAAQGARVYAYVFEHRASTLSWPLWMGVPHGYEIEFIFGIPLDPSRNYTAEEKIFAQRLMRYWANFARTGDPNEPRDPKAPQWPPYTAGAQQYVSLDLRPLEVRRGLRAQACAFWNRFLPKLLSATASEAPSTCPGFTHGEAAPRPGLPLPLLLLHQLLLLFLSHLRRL
Procedure: Acetylthiocholine iodide and 5,5-dithiobis-(2-nitrobenzoic) acid (DTNB) were purchased from Sigma Aldrich. AChE from human erythrocytes (buffered aqueous solution, ≥500 units/mg protein (BCA), Sigma Aldrich) was diluted in 20 mM HEPES buffer pH 8, 0.1% Triton X-100 such as to have enzyme solution with 0.25 unit/mL enzyme activity. In the procedure, 100 μL of 0.3 mM DTNB dissolved in phosphate buffer pH 7.4 was added into the 96-well plate followed by 50 μL of test compound solution and 50 μL of enzyme (0.05 U final). After 5 min of preincubation at 25°C, the reaction was then initiated by the injection of 50 μL of 10 mM acetylthiocholine iodide solution. […] Assays were performed with a blank containing all components except acetylthiocholine, in order to account for non-enzymatic reaction. The reaction slopes were compared and the percent inhibition due to the presence of test compounds was calculated by the following expression: 100 − (vi/v0 × 100) where vi is the rate calculated in the presence of inhibitor and v0 is the enzyme activity.

human 5-HT6 receptors = molecular target: T2, human 5-HT6 receptors (Homo sapiens, UniProt P50406); test: [3H]-LSD competition binding on membranes of HEK-293 cells expressing human 5-HT6 receptors; settings: for inhibition / inhibition at 0.0025 µM: 2.5 nM [3H]-LSD; for Ki: (h)5-HT6R Ki, n = 3, Ki ± SD
T2 construct: purchased Perkin Elmer RBHS6M; host or cells: HEK-293 cells, transient expression (membranes)
T2 sequence (P50406 whole entry): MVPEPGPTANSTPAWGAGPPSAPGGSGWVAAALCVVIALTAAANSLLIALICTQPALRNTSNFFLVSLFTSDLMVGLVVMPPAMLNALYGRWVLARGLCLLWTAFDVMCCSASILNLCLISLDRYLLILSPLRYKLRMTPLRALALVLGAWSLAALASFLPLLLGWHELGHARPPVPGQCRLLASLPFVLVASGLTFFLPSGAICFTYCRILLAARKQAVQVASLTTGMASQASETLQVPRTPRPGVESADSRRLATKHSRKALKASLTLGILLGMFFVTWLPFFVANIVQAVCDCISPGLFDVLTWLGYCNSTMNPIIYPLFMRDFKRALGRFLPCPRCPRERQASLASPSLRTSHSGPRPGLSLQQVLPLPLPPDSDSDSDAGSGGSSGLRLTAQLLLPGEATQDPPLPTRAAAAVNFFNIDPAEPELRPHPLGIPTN
Procedure: Drugs were evaluated through their possibility to compete for the binding of [^3H]-LSD on membranes of HEK-293 cells transiently expressing the human 5-HT6 receptors (ref. RBHS6M, Perkin Elmer). […] At the end of the incubation, the homogenates were then filtered through Whatman GF/C filters and washed five times with ice-cold 25 mM Tris-HCl buffer. Non-specific binding was evaluated in the presence of 100 μM serotonin. Radioactivity associated to proteins was then quantified and expressed as the percentage of inhibition of the drugs under study.
(§1) For some of these compounds, affinity constants were calculated from five-point inhibition curves using the GraphPad Prism 6 software and expressed as Ki ± SD.

Human 5-HT4R = molecular target: T3, Human 5-HT4R (Homo sapiens, UniProt Q13639); test: [3H]-GR113808 competition binding on 5-HT4(b) membrane preparations; settings: for inhibition / inhibition at 0.0002 µM: 0.2 nM [3H]-GR113808; for Ki: (h)5-HT4R Ki, n = 3, Ki ± SD
T3 construct: purchased Eurofins HTS110M
T3 sequence (Q13639 whole entry): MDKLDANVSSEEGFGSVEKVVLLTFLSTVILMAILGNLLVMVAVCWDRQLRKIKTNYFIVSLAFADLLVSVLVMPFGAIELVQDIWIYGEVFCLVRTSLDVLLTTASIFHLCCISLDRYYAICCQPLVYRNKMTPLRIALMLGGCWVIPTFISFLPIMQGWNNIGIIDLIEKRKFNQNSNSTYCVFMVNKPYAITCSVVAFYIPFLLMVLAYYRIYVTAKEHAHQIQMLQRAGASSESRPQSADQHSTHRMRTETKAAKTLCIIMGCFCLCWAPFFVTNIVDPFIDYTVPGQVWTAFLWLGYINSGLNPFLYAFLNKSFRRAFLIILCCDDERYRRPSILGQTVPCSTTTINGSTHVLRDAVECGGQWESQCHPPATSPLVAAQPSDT
Procedure: At the end of the incubation, homogenates were filtered through Whatman GF/C filters (Alpha Biotech) presoaked with 0.5% polyethylenimine using a Brandel cell harvester. Filters were subsequently washed three times with 1 mL of ice-cold 25 mM Tris buffer (pH 7.4, 4°C). Non-specific binding was evaluated in parallel in the presence of 30 μM serotonin.
as §1

[2] = read-out: (h)5-HT6R % inhibition at 10^−6M, 10^−6M
[3] = read-out: (h)5-HT6R % inhibition at 10^−8M, 10^−8M
[4] = read-out: (h)5-HT4R % inhibition at 10^−6M, 10^−6M
[5] = read-out: (h)5-HT4R % inhibition at 10^−8M, 10^−8M

Compound	inhibition at 1 µM [1] [%]	affinity for 5-HT6R (in words) (human 5-HT6 receptors)	inhibition (human 5-HT6 receptors; [2]) [%]	inhibition (human 5-HT6 receptors; [3]) [%]	inhibition (Human 5-HT4R; [4]) [%]	inhibition (Human 5-HT4R; [5]) [%]	IC50 ([1]; n = 2, read-out: (h)AChE IC50) [nM]	Ki (human 5-HT6 receptors) [nM]	inhibitory effect towards AChE (in words) [1]	inhibition at 0.0025 µM (human 5-HT6 receptors; [2]) [%]	IC50 ([1]; (h)AChE IC50, n = 2) [nM]	Ki (Human 5-HT4R)	inhibition at 0.0002 µM (Human 5-HT4R; [5]) [%]
COc1cc(N)c(Cl)cc1C(=O)CCC1CCN(Cc2ccccc2)CC1 [5a]	98	devoid of such an activity	29	0	102	41	–	–	–	–	–	–	–
COc1cc(N)c(Cl)cc1C(=O)CCC1CCN(Cc2ccccc2Cl)CC1 [5b, 1-(4-Amino-5-chloro-2-methoxyphenyl)-3-(1-(2-chlorobenzyl)piperidin-4-yl)propan-1-one]	91	–	–	27	94	16	156 ± 71	110 ± 19	–	–	–	–	–
COc1cc(N)c(Cl)cc1C(=O)CCC1CCN(Cc2ccccc2Br)CC1 [5c, 1-(4-Amino-5-chloro-2-methoxyphenyl)-3-(1-(2-bromobenzyl)piperidin-4-yl)propan-1-one]	80	–	65	34	96	17	317 ± 115	–	–	–	–	–	–
COc1cc(N)c(Cl)cc1C(=O)CCC1CCN(Cc2ccccc2F)CC1 [5d, 1-(4-Amino-5-chloro-2-methoxyphenyl)-3-(1-(2-fluorobenzyl)piperidin-4-yl)propan-1-one]	96	–	68	21	94	10	102 ± 65.4	–	–	–	–	–	–
COc1cc(N)c(Cl)cc1C(=O)CCC1CCN(Cc2ccccc2I)CC1 [5e, 1-(4-Amino-5-chloro-2-methoxyphenyl)-3-(1-(2-iodobenzyl)piperidin-4-yl)propan-1-one]	37	displayed affinity for 5-HT6R	81	25	96	1	–	186 ± 71	devoid of inhibitory effect towards AChE	–	–	–	–
COc1cc(N)c(Cl)cc1C(=O)CCC1CCN(Cc2ccccc2C)CC1 [5f, 1-(4-Amino-5-chloro-2-methoxyphenyl)-3-(1-(2-methylbenzyl)piperidin-4-yl)propan-1-one]	87	–	–	24	98	9	225 ± 57.3	270 ± 14	–	> 70	–	–	–
COc1cc(N)c(Cl)cc1C(=O)CCC1CCN(Cc2ccccc2OCc2ccccc2)CC1 [5g, 1-(4-Amino-5-chloro-2-methoxyphenyl)-3-(1-(2-benzyloxybenzyl)piperidin-4-yl)propan-1-one]	33	–	18	0	70	7	–	–	–	–	–	–	–
COc1cc(N)c(Cl)cc1C(=O)CCC1CCN(Cc2ccccc2O)CC1 [5h, 1-(4-Amino-5-chloro-2-methoxyphenyl)-3-(1-(2-hydroxybenzyl)piperidin-4-yl)propan-1-one]	94	–	24	0	98	10	57.4 ± 9.4	–	–	–	–	–	–
COc1cc(N)c(Cl)cc1C(=O)CCC1CCN(Cc2cccc(Br)c2)CC1 [5i, 1-(4-Amino-5-chloro-2-methoxyphenyl)-3-(1-(3-bromobenzyl)piperidin-4-yl)propan-1-one]	44	displayed affinity for 5-HT6R	77	7	94	5	–	169 ± 44	devoid of inhibitory effect towards AChE	–	–	–	–
COc1cc(N)c(Cl)cc1C(=O)CCC1CCN(Cc2cccc(F)c2)CC1 [5j, 1-(4-Amino-5-chloro-2-methoxyphenyl)-3-(1-(3-fluorobenzyl)piperidin-4-yl)propan-1-one]	97	–	59	9	98	12	91 ± 53.8	–	–	–	–	–	–
COc1cc(N)c(Cl)cc1C(=O)CCC1CCN(Cc2cccc(C)c2)CC1 [5k, 1-(4-Amino-5-chloro-2-methoxyphenyl)-3-(1-(3-methylbenzyl)piperidin-4-yl)propan-1-one]	89	–	–	9	98	–	–	230 ± 49	–	> 70	161 ± 43	168 ± 15 nM	≥ 25
COc1cccc(CN2CCC(CCC(=O)c3cc(Cl)c(N)cc3OC)CC2)c1 [5l, 1-(4-Amino-5-chloro-2-methoxyphenyl)-3-(1-(3-methoxybenzyl)piperidin-4-yl)propan-1-one]	35	displayed affinity for 5-HT6R	78	6	94	9	–	265 ± 64	devoid of inhibitory effect towards AChE	–	–	–	–
COc1cc(N)c(Cl)cc1C(=O)CCC1CCN(Cc2cccc(N)c2)CC1 [5m, 1-(4-Amino-5-chloro-2-methoxyphenyl)-3-(1-(3-aminobenzyl)piperidin-4-yl)propan-1-one]	93	–	–	31	100	–	41 ± 5	1150 ± 559	–	> 70	–	43 nM and 42.5 nM	≥ 25
COc1cc(N)c(Cl)cc1C(=O)CCC1CCN(Cc2cccc([N+](=O)[O-])c2)CC1 [5n, 1-(4-Amino-5-chloro-2-methoxyphenyl)-3-(1-(3-nitrobenzyl)piperidin-4-yl)propan-1-one]	64	–	51	0	90	3	–	–	–	–	–	–	–
COc1cc(N)c(Cl)cc1C(=O)CCC1CCN(Cc2ccc(F)cc2)CC1 [5o, 1-(4-Amino-5-chloro-2-methoxyphenyl)-3-(1-(4-fluorobenzyl)piperidin-4-yl)propan-1-one]	92	–	58	13	102	19	78.4 ± 12.1	–	–	–	–	–	–
COc1cc(N)c(Cl)cc1C(=O)CCC1CCN(Cc2ccc(O)cc2)CC1 [5p, 1-(4-Amino-5-chloro-2-methoxyphenyl)-3-(1-(4-hydroxybenzyl)piperidin-4-yl)propan-1-one]	98	–	24	0	100	23	6 ± 0.4	–	–	–	–	–	–
